Data reported in US11691992B2 (Anacor Pharmaceuticals, Inc., priority 2017, dated 2023).
Where two headings read alike, the source gives them in different places.

Experiments:
Type in all cases: cell-based
[1] = tested on: TdTomato-modified T. cruzi (CL strain) in Vero cells; test: In vitro IC50 measurement of T. cruzi amastigote killing using TdTomato-modified T. cruzi (CL strain); conditions: Trypanosoma cruzi, 72 h, fluorescence, read-out: IC50: I Org. amastigote Growth T. cruzi CL TdTomato, 3 d
Experimental: Example 112. In Vitro IC50 Measurement of T. cruzi Amastigote Killing Using TdTomato-Modified T. cruzi (CL Strain)
The T. cruzi parasites used in this assay were genetically modified to express Td Tomato fluorescent protein. Vero cells (African green monkey kidney epithelial cells) were harvested from continuous cultures using trypsin and added to the inner 60 wells of 96-well Greiner Bio One plates (plate catalog #655090) at 200 ul/well of […]. Cells were allowed to adhere for 1 h before infection with T. cruzi. T. cruzi for infection were harvested from previously-infected Vero cells, washed, pelleted and resuspended at 5×10^6/mL. 50 uL of parasites were added to each well containing Vero cells. Compounds were prepared from 5 mM stock concentrations in DMSO to final concentrations in wells ranging from 5 uM to 5 nM. Wells were provided for negative controls, lacking compounds. Plates were placed into a 37° C. incubator for 20 min, then a “Day 0” reading was taken on a Synergy H4 plate reader to record initial fluorescence levels, at 544 (excitation) and 612 nm (emission). 96-well plates were placed in Tupperware containers with wet paper towels and incubated at 37° C. incubator for 72 h. After 72 h plates were reread (Day 3 reading) and data analyzed using Excel and/or Graphpad software. Day 0 fluorescence was subtracted from Day 3 to remove input parasite fluorescence. Growth curves are generated and 50% and 90% inhibitory concentrations are determined by nonlinear regression analysis.

[2] = tested on: luciferase-expressing L. major parasites developing intracellularly inside RAW 264.7 macrophages; test: Leishmania major intracellular amastigote assay in RAW 264.7 macrophages (luciferase); conditions: RAW264.7, 96 hours, read-out: IC50: I Org. intracellular amastigote Growth L. major, 4 d
Excerpt: Example 107. Assay for Leishmania major Intracellular Amastigote Assay in RAW 264.7 Macrophages
The intracellular amastigote assay is a microtiter plate drug sensitivity assay that uses the activity of luciferase as a measure of proliferation of luciferase-expressing L. major parasites developing intracellularly inside RAW 264.7 macrophages in the presence of antileishmanial drugs or experimental compounds. (Buckner, F. S., and A. J. Wilson. Am J Prop Med Hyg, 2005, 72(5): 600-605.) As the activity of luciferase and its associated luminescence after addition of the substrate, luciferin, is relative to parasite growth, a test compound that inhibits the growth of the parasite will result in a lower luminescence. The luciferase-expressing L. major parasite used in this assay is genetically modified by adding the luciferase coding region to the pLEXSY-hyg2 vector (Jena Biosciences). The luciferase expression construct was created by digesting the luciferase coding region (1.66 kbp) of pGL3-Basic (Promega) by using two restriction enzymes, NcoI/EagI, followed by electrophoretic separation of the luciferase coding region on a 1% agarose gel. The luciferase coding region was then ligated into pLEXSY-hyg2 vector (Jena Biosciences) which had previously been digested with NcoI/NotI. The vector was linearized with SwaI and subsequently gel purified prior to transfection into L. major parasites. Transfections were carried out by electroporation at 480V, 13Ω, and 500 μF (0.4 mL of 1×10^8 parasites/mL, and 0.1 mL of 10 μg DNA). Selection for transfectants was then carried out using hygromycin B (100 μg/mL). RAW 264.7 macrophages were cultured in DMEM media (ATCC Cat #30-2002) supplemented with heat-inactivated 10% FBS (Invitrogen Cat #10438-034). To begin the assay, macrophages were harvested from culture by removing all spent media, adding in 10 mL fresh media, scraping cells, and counted using Trypan Blue. The cells were resuspended in DMEM/10% HIFBS media at 2.0×10^5 cells/mL, and then dispensed in a volume of 50 μL to yield a final concentration of 10,000 macrophages/well in 384 well tissue-culture treated sterile white plates (Nunc Cat #12-565-343) using a Tecan EVO Freedom robotics system. The plates were then incubated at 37° C. overnight in 5% CO2 atmosphere for 24 hours. After overnight incubation, the media was removed from each well using the Tecan EVO Freedom robot, and L. major promastigotes were added to each well and allowed to invade the RAW macrophages. Promastigotes were cultured in Schneider's medium (Invitrogen Cat #11720-067) supplemented with 20% heat inactivated FBS. Metacyclic stage promastigotes provide the best invasion for this assay, and cultures should be grown to increase the percentage of metacyclic promastigotes for best results. Promastigotes were harvested from culture, counted, suspended at 2×10^6 promastigotes/mL in DMEM/HIFBS media, and 100,000 promastigotes were dispensed per well in a volume of 50 μL. After overnight incubation, the media was removed from each well using the Tecan Freedom EVO robot, and each well was subsequently washed three times with 40 μF of fresh DMEM/HIFBS medium to remove all extracellular promastigotes. After the third wash, 69.2 μF of DMEM/HIFBS medium was added to each well using the Tecan EVO Freedom robot. Drug plates were prepared with the Tecan EVO Freedom using sterile 96 well plates containing twelve duplicate two-fold serial dilutions of each test compound suspended in DMSO. 7.8 μF of diluted test compound was added to the 69.2 μF of media present in each well providing a 10 fold final dilution of compound. The final concentration range tested was 0.5 to 10,000 ng/ml for all assays. The plates were next incubated at 37° C. and 5% CO2 for 96 hours. After 96 hours of incubation, 7.5 μF of a luciferin solution (Caliper Fife Science) diluted to 150 μg/mF was added to each well, and the plates were incubated for 30 minutes at 37° C., in the dark. […]

[3] = tested on: bloodstream forms of T. b. rhodesiense STIB 900; test: T. brucei rhodesiense STIB 900 growth inhibition assay; conditions: Trypanosoma brucei, 72 h
Excerpt: Example 110. T. brucei rhodesiense STIB 900 Growth Inhibition Assay
The parasite strain used in this assay was isolated in 1982 from a human patient in Tanzania and after several mouse passages cloned and adapted to axenic culture conditions, ((a) Baltz, T., D. Baltz, C. Giroud, and J. Crockett. EMBO Journal, 1985, 4:1273-1277. (b) Thuita, J. K., S. M. Karanja, T. Wenzler, R. E. Mdachi, J. M. Ngotho, J. M. Kagira, R. Tidwell, and R. Brun. Acta Tropica 2008, 108:6-10.) Minimum Essential Medium (50 μl) supplemented with 25 mM HEPES, 1 g/l additional glucose, 1% MEM non-essential amino acids (100×), 0.2 mM 2-mercaptoethanol, 1 mM Na-pyruvate and 15% heat inactivated horse serum was added to each well of a 96-well microtiter plate. Serial drug dilutions of seven 3-fold dilution steps covering a range from 90 to 0.123 μg/ml were prepared. Then 10^4 bloodstream forms of T. b. rhodesiense STIB 900 in 50 μl was added to each well and the plate incubated at 37° C. under a 5% CO2 atmosphere for 72 h. 10 μl Alamar Blue (resazurin, 12.5 mg in 100 ml double-distilled water) was then added to each well and incubation continued for a further 2-4 h, (Raz, B., M. Iten, Y. Grether-Buhler, R. Kaminsky, and R. Brun. Acta Trap 1997, 68:139-47.) Then the plates were read with a Spectramax Gemini XS microplate fluorometer (Molecular Devices Cooperation, Sunnyvale, Calif., USA) using an excitation wave length of 536 nm and an emission wave length of 588 nm. Data were analyzed using the microplate reader software Softmax Pro (Molecular Devices Cooperation, Sunnyvale, Calif., USA).

[4] = tested on: IL3000 T. congolense (drug sensitive) strain; test: In vitro Alamar Blue 72 h drug sensitivity assay for T. congolense; conditions: Trypanosoma congolense; for IC50: bloodstream form, 69 h + 3 h resazurin, 34° C., classes A-C, read-out: IC50: I Org. Growth T. congolense IL-3000, 3 d
Experimental: Example 106. In Vitro Alamar Blue 72 h Drug Sensitivity Assay for T. congolense
Compounds were tested in vitro for chemotherapeutic potency against the IL3000 T. congolense (drug sensitive) strain, using the Alamar Blue assay with several modifications. Test compounds were prepared as 10 mg/mL DMSO stocks for each assay run. Compounds were assayed in at least three separate, independent test runs and an 11-point dilution curve was used to determine the IC50 values. Bloodstream form trypanosomes were supported in HMI media containing 20% bovine serum and were incubated with test compounds for 69 h at 34° C. in a humidified atmosphere containing 5% CO2. Thereafter, 10 μL of Resazurin dye (12.5 mg in 100 mL of phosphate buffered saline, Sigma-Aldrich, Buchs, Switzerland) were added for an additional 3 h. Plates were then read using a fluorescent plate reader (Spectramax, Gemini XS, Bucher Biotec, Basel, Switzerland) using an excitation wavelength of 536 nm and an emission wavelength of 588 nm. Data points were averaged to generate sigmoidal dose-response curves and IC50 values were determined using Softmax Pro 5.2 software.

[5] = tested on: L. infantum MHOM/MA(BE)/67 amastigotes in primary peritoneal mouse macrophages; test: Leishmania infantum intracellular amastigote assay in mouse macrophages; conditions: Macrophage, 120 h
Experimental: Example 111. Leishmania infantum Intracellular Amastigote Assay in Mouse Macrophages
L. infantum MHOM/MA(BE)/67 amastigotes were collected from the spleen of an infected donor hamster and used to infect primary peritoneal mouse macrophages. (Kaiser, M., Maes, L., Tadoori, L. P., Spangenberg, T., Ioset, J.-R. J. Biomol. Screen. 2015 20(5), 634-35.) To determine in vitro antileishmanial activity, 3×10^4 macrophages were seeded in each well of a 96-well plate. Culture medium was RPMI-1640 supplemented with L-glutamine (20 mM), 16.5 mM sodium hydrogen carbonate, and 10% fetal calf serum (FCS). After 2 d of outgrowth, 5×10^5 amastigotes/well were added and incubated for 2 h at 37° C. Prediluted samples to be tested were subsequently added, and the plates were further incubated for 5 d at 37° C. and 5% CO2. Total parasite burdens in the well were microscopically assessed after Giemsa staining and expressed as a percentage of the total burden in the blank controls without compound. In treated wells with high amastigote burdens, an overall estimate of the total burden per well was made without discrimination between the number of infected macrophages and the number of amastigotes per infected cell. In treated wells with low burdens, exact counting was performed. The 50% inhibitory concentrations (IC50s) were then generated for each dose response test using GraphPad Prism (GraphPad Software Inc., San Diego, Calif.) using the nonlinear regression (sigmoidal dose-response/variable slope) equation.

[6] = read-out: IC50: I Org. Growth T. brucei rhodesiense STIB 900, 3 d [uM]
[7] = read-out: Inhibition of Organism Growth in Leishmania infantum MHOM/MA/BE/67, 5 d [uM]
[8] = bloodstream forms, Alamar Blue, protocol of Example 110, read-out: IC50: I Org. Growth T. brucei rhodesiense STIB 900, 3 d
[9] = amastigotes in primary peritoneal mouse macrophages, 5 d, Giemsa staining, read-out: Inhibition of Organism Growth in Leishmania infantum MHOM/MA/BE/67, 5 d

For `Cc1c(C(=O)Nc2ccc3c(c2)B(O)OC3)nnn1C1CCC1` [Example 42, 1-cyclobutyl-N-(1-hydroxy-1,3-dihydrobenzo[c][1,2]oxaborol-6-yl)-5-methyl-1H-1,2,3-triazole-4-carboxamide], the IC50 [1] was 600 to 1000 nM and the IC50 [2] was 1100 to 9900 nM.

With `Cn1nc(-c2cccnc2)nc1C(=O)Nc1ccc2c(c1)B(O)OC2` [Example 78b, N-(1-hydroxy-1,3-dihydrobenzo[c][1,2]oxaborol-6-yl)-1-methyl-3-(pyridin-3-yl)-1H-1,2,4-triazole-5-carboxamide] the IC50 [3, 6] was 0.31 to 10 µM, the inhibition at 1 µM ([4]; read-out: inhibition of T. congolense IL-3000 growth at a concentration of 1.0 μM (classes D, E)) was over 75% and the IC50 [5, 7] was 20 to 100 µM.

In the case of `Cc1c(C(=O)Nc2ccc3c(c2)B(O)OC3C)nnn1-c1ccccc1` (centres unmarked) [Example 1, N-(1-hydroxy-1,3-dihydrobenzo[c][1,2]oxaborol-6-yl)-5-methyl-1-phenyl-1H-Example 11,2,3-triazole-4-carboxamide], the IC50 [1] is reported as under 600 nM and the IC50 [2] is reported as at most 1000 nM.

For `Cn1c(C(=O)Nc2ccc3c(c2)B(O)OC3)nnc1-c1ccccn1` [Example 73, N-(1-hydroxy-1,3-dihydrobenzo[c][1,2]oxaborol-6-yl)-4-methyl-5-(pyridine-2-yl)-4H-1,2,4-triazole-3-carboxamide], the IC50 [3, 8] was 0.1 to 0.3 µM and the IC50 [5, 9] was 3 to 19.9 µM.

In the case of `Cc1cccc(-c2nc(C(=O)Nc3ccc4c(c3)B(O)OC4)nn2C)n1` [Example 74, N-(1-hydroxy-1,3-dihydrobenzo[c][1,2]oxaborol-6-yl)-1-methyl-5-(6-methylpyridin-2-yl)-1H-1,2,4-triazole-3-carboxamide], the IC50 [3, 8] is reported as 0.1 to 0.3 µM and the IC50 [5, 9] is reported as under 3 µM.

`CC(C)c1c(C(=O)Nc2ccc3c(c2)B(O)OC3)nnn1-c1ccccn1` [Example 51, N-(1-hydroxy-1,3-dihydrobenzo[c][1,2]oxaborol-6-yl)-5-isopropyl-1-(pyridin-2-yl)-1H-1,2,3-triazole-4-carboxamide] showed an IC50 [4] of 100 to 300 nM and an IC50 [1] of 600 to 1000 nM.

With `CCCc1c(C(=O)Nc2ccc3c(c2)B(O)OC3)nnn1-c1ccccn1` [Example 50, N-(1-hydroxy-1,3-dihydrobenzo[c][1,2]oxaborol-6-yl)-5-propyl-1-(pyridin-2-yl)-1H-1,2,3-triazole-4-carboxamide] the IC50 [4] was 100 to 300 nM and the IC50 [1] was under 600 nM.

`Cn1nc(C(=O)Nc2ccc3c(c2)B(O)OC3)nc1-c1cccnc1` [Example 78a, N-(1-hydroxy-1,3-dihydrobenzo[c][1,2]oxaborol-6-yl)-1-methyl-5-(pyridin-3-yl)-1H-1,2,4-triazole-3-carboxamide] gave an IC50 [3, 6] of 0.31 to 10 µM and an IC50 [5, 7] of 3 to 19.9 µM.
